This note sets out measurements from patent publication US20220363709A1, “ECTONU[…] METHODS OF USE THEREOF” (priority 2019, published 2022).

The target in the first assay is T1, recombinant CD73 (Homo sapiens, UniProt P21589).
T1 construct: purchased R&D Systems 5795-EN-010
T1 sequence (P21589 27-547 limits assumed): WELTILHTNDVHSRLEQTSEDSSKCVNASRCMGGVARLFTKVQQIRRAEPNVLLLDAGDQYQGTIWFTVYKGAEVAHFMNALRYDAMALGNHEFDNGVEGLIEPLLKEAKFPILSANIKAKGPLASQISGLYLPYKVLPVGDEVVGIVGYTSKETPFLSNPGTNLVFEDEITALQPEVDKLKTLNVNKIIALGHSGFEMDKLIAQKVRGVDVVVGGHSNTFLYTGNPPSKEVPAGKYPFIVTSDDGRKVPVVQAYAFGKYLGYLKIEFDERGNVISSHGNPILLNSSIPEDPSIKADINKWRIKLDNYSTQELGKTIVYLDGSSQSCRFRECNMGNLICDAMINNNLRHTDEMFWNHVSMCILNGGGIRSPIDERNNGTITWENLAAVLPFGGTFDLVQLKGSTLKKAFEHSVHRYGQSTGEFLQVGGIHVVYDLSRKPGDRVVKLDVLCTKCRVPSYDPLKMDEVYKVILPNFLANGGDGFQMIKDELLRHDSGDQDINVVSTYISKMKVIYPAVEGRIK
Nature of the assay: Assay 1: Inhibition of the CD73 Enzyme In Vitro. In kind it is biochemical.
Conditions: not given
The protocol:
Serial dilutions of test compounds were incubated with recombinant CD73 and AMP in reaction buffer (25 mM Tris HCl pH7.5, 5 mM MgCl2, 50 mM NaCl, 0.25 mM DTT, 0.005% Triton X-100). The final reaction volume was 25 μL and the final concentrations of recombinant CD73 and AMP were 0.5 nM and 50 μM, respectively. […] After 5 minutes at room temperature, absorbance at 630 nm was determined on a microplate spectrophotometer. The concentration of inorganic phosphate was determined using a phosphate standard curve.
ND indicates not determined.
With `COC(=O)c1ccccc1-c1ccc(CC(OC[C@H]2O[C@@H](n3cnc4c(N)nc(Cl)nc43)[C@H](O)[C@@H]2O)(C(=O)O)c2ccccc2)cc1` (stereo partly drawn) [Example 46, 2-(((2R,3S,4R,5R)-5-(6-amino-2-chloro-9H-purin-9-yl)-3,4-dihydroxytetrahydrofuran-2-yl)methoxy)-3-(2′-(methoxycarbonyl)-[1,1′-biphenyl]-4-yl)-2-phenylpropanoic acid], the IC50 was greater than 50000 nM.

As to `Nc1nc(Cl)nc2c1ncn2[C@@H]1O[C@H](COC(Cc2ccc(-c3ccccc3C(=O)O)cc2)(C(=O)O)c2cscn2)C[C@H]1O` (stereo partly drawn) [Example 50, 4′-(2-(((2S,4R,5R)-5-(6-amino-2-chloro-9H-purin-9-yl)-4-hydroxytetrahydrofuran-2-yl)methoxy)-2-carboxy-2-(thiazol-4-yl)ethyl)-[1,1′-biphenyl]-2-carboxylic acid], the IC50 is greater than 1000 nM.

The same assay, now with this note: soluble recombinant CD73 0.5 nM, AMP 50 μM, 30 minutes at room temperature, Malachite Green, absorbance at 630 nm; read-out: Assay 1 CD73 IC50.
As for `Nc1nc(Cl)nc2c1ncn2[C@@H]1O[C@H](CO[C@](Cc2ccc(-c3ccccc3)cc2)(C(=O)O)c2cscn2)[C@@H](O)[C@@H]1F` (single isomer, unassigned) [Example 8], the half-maximal inhibitory concentration (IC50) amounted to 241 nM.

With `Nc1nc(Cl)nc2c1ncn2[C@@H]1O[C@H](CO[C@@](Cc2ccc(-c3ccccc3)cc2)(C(=O)O)c2cscn2)[C@@H](O)[C@@H]1F` (single isomer, unassigned) [Example 9], the IC50 was 2640 nM.

As for `Nc1nc(Cl)nc2c1ncn2[C@@H]1O[C@H](CO[C@](Cc2ccc(-c3ccc(C(=O)O)cc3)cc2)(C(=O)O)c2cscn2)[C@@H](O)[C@@H]1F` (single isomer, unassigned) [Example 10], the IC50 came out at 227 nM.

As to `Nc1nc(Cl)nc2c1ncn2[C@@H]1O[C@H](CO[C@@](Cc2ccc(-c3ccc(C(=O)O)cc3)cc2)(C(=O)O)c2cscn2)[C@@H](O)[C@@H]1F` (single isomer, unassigned) [Example 11], the IC50 is 1530 nM.

Regarding `Nc1nc(Cl)nc2c1ncn2[C@@H]1O[C@H](CO[C@](Cc2ccc(C(=O)O)cc2)(C(=O)O)c2cscn2)[C@@H](O)[C@@H]1F` (single isomer, unassigned) [Example 15], the IC50 stood at 296 nM.

As for `Nc1nc(Cl)nc2c1ncn2[C@@H]1O[C@H](CO[C@@](Cc2ccc(C(=O)O)cc2)(C(=O)O)c2cscn2)[C@@H](O)[C@@H]1F` (single isomer, unassigned) [Example 16], the IC50 was 4870 nM.

For `COc1ncccc1-c1ccc(C[C@@](OC[C@H]2O[C@@H](n3cnc4c(N)nc(Cl)nc43)[C@@H](F)[C@@H]2O)(C(=O)O)c2cscn2)cc1` (single isomer, unassigned) [Example 19], the IC50 was 170 nM.

As for `COc1ncccc1-c1ccc(C[C@](OC[C@H]2O[C@@H](n3cnc4c(N)nc(Cl)nc43)[C@@H](F)[C@@H]2O)(C(=O)O)c2cscn2)cc1` (single isomer, unassigned) [Example 20], the IC50 turned out to be 2750 nM.

`Nc1nc(Cl)nc2c1ncn2[C@@H]1O[C@H](CO[C@](Cc2ccc(-c3ccc[nH]c3=O)cc2)(C(=O)O)c2cscn2)[C@@H](O)[C@@H]1F` (single isomer, unassigned) [Example 21]: the IC50 amounted to 47 nM.

In the case of `Nc1nc(Cl)nc2c1ncn2[C@@H]1O[C@H](CO[C@@](Cc2ccc(-c3ccc[nH]c3=O)cc2)(C(=O)O)c2cscn2)[C@@H](O)[C@@H]1F` (single isomer, unassigned) [Example 22], the IC50 was 2980 nM.

For `Cc1nc([C@](Cc2ccc(-c3ccccc3)cc2)(OC[C@H]2O[C@@H](n3cnc4c(N)nc(Cl)nc43)[C@H](O)[C@@H]2O)C(=O)O)cs1` (single isomer, unassigned) [Example 28], the IC50 stood at 90 nM.

On to `Cc1nc([C@@](Cc2ccc(-c3ccccc3)cc2)(OC[C@H]2O[C@@H](n3cnc4c(N)nc(Cl)nc43)[C@H](O)[C@@H]2O)C(=O)O)cs1` (single isomer, unassigned) [Example 29], for which the IC50 came to 3220 nM.

In the case of `Nc1nc([C@](Cc2ccccc2)(OC[C@H]2O[C@@H](n3cnc4c(N)nc(Cl)nc43)[C@H](O)[C@@H]2O)C(=O)O)cs1` (single isomer, unassigned) [Example 30], the IC50 worked out at 342 nM.

As for `Nc1nc([C@@](Cc2ccccc2)(OC[C@H]2O[C@@H](n3cnc4c(N)nc(Cl)nc43)[C@H](O)[C@@H]2O)C(=O)O)cs1` (single isomer, unassigned) [Example 31], the IC50 worked out at 1970 nM.

As for `Nc1nc(Cl)nc2c1ncn2[C@@H]1O[C@H](CO[C@](Cc2ccccc2)(C(=O)O)c2cocn2)[C@@H](O)[C@H]1O` (single isomer, unassigned) [Example 35], the half-inhibitory concentration (IC50) was determined as 290 nM.

On to `Nc1nc(Cl)nc2c1ncn2[C@@H]1O[C@H](CO[C@@](Cc2ccccc2)(C(=O)O)c2cocn2)[C@@H](O)[C@H]1O` (single isomer, unassigned) [Example 36], for which the IC50 turned out to be 6260 nM.

Regarding `COc1cccc(CO)c1-c1ccc(C[C@@](OC[C@H]2O[C@@H](n3cnc4c(N)nc(Cl)nc43)[C@H](O)[C@@H]2O)(C(=O)O)c2cscn2)cc1` (single isomer, unassigned) [Example 39], the IC50 came out at 68 nM.

For the compound `COc1cccc(CO)c1-c1ccc(C[C@](OC[C@H]2O[C@@H](n3cnc4c(N)nc(Cl)nc43)[C@H](O)[C@@H]2O)(C(=O)O)c2cscn2)cc1` (single isomer, unassigned) [Example 40], the IC50 was 2230 nM.

For the compound `CS(=O)(=O)Nc1ccccc1-c1ccc(C[C@@](OC[C@H]2O[C@@H](n3cnc4c(N)nc(Cl)nc43)[C@H](O)[C@@H]2O)(C(=O)O)c2cscn2)cc1` (single isomer, unassigned) [Example 41], the IC50 was determined as 43 nM.

As to `CS(=O)(=O)Nc1ccccc1-c1ccc(C[C@](OC[C@H]2O[C@@H](n3cnc4c(N)nc(Cl)nc43)[C@H](O)[C@@H]2O)(C(=O)O)c2cscn2)cc1` (single isomer, unassigned) [Example 42], the IC50 was 904 nM.

As to `Nc1nc(Cl)nc2c1ncn2[C@@H]1O[C@H](CO[C@](Cc2ccc(-c3ccccc3OC(F)(F)F)cc2)(C(=O)O)c2cscn2)[C@@H](O)[C@H]1O` (single isomer, unassigned) [Example 43], the IC50 amounted to 51 nM.

With `Nc1nc(Cl)nc2c1ncn2[C@@H]1O[C@H](CO[C@@](Cc2ccc(-c3ccccc3OC(F)(F)F)cc2)(C(=O)O)c2cscn2)[C@@H](O)[C@H]1O` (single isomer, unassigned) [Example 44], the IC50 came to 365 nM.

Turning to `Nc1nc(Cl)nc2c1ncn2[C@@H]1O[C@H](CO[C@](Cc2ccc(-c3ccccc3C(=O)O)cc2)(C(=O)O)c2ccccc2)[C@@H](O)[C@H]1O` (single isomer, unassigned) [Example 47], the IC50 was found to be 4220 nM.

Turning to `Nc1nc(Cl)nc2c1ncn2[C@@H]1O[C@H](CO[C@@](Cc2ccc(-c3ccccc3C(=O)O)cc2)(C(=O)O)c2ccccc2)[C@@H](O)[C@H]1O` (single isomer, unassigned) [Example 48], the IC50 stood at 14100 nM.
